In US20240270801A1, “EPITOPE PEPTIDE OF HUMAN ALPHA-SYNUCLEIN AND PHARMACEUTICAL COMPOSITION INCLUDING SAID PEPTIDE” (Sumitomo Pharma Co., Ltd., priority 2021, published 2024):
Non-standard residues stand in square brackets, D forms with d. No end group written: not given here. Ahx = NCCCCCC(=O)O

Experiments:
aggregated human αSyn = assay: Antibody-inducing ability in mice: ELISA antibody titer of immune serum with respect to aggregated human αSyn; assay type: in vivo, mouse; details: mice
Description: (§1) Using the various AJ peptide-human αSyn peptide conjugates produced in Example 1, an antibody-inducing ability with respect to human αSyn in mice was evaluated. The various AJ-human αSyn peptide conjugates (250 μg/mouse) or KLH-DMPVDPDN (25 μg/mouse) in physiological saline were intramuscularly administered to balb/c mice (females, 6 weeks old, CLEA Japan, Inc.) twice at a 2-week interval for immunization using aluminum hydroxide (Alum) (InvivoGen, 50 μg/mouse) as an adjuvant. As a negative control, physiological saline (100 μL/mouse) comprising the same amount of aluminum hydroxide was administered twice. Two weeks after the second administration, serum was recovered to evaluate the antibody titer with respect to human αSyn by ELISA.
(§2) ELISA was performed by the following method. 96-well plates were coated with human αSyn (Sigma) at 0.2 μg/well. After washing with PBST (Phosphate Buffered Saline comprising 0.05% Tween) once, blocking was performed with 3% skim milk (FUJIFILM Wako Pure Chemical Corporation). After washing with PBST three times, diluted serum was added to cause a reaction at room temperature for 1 hour. Furthermore, after washing with PBST three times, Goat anti-mouse IgG-HRP (abcam) was added to cause a reaction at room temperature for 1 hour. After washing with PBST three times, SureBlue TMB Microwell Peroxidase Substrate (KPL) was added to cause a reaction at room temperature for 10 minutes while light shielding. An equal volume of a TMB Stop Solution (KPL) was added to stop the reaction, and the absorbance at 450 nm was measured. ELISA with respect to aggregated human αSyn was performed by coating with the aggregated human αSyn (Stress Marq) at 15 ng/well instead of human αSyn in the above-mentioned method.
The antibody-inducing ability of the AJ-human αSyn peptide conjugates (AJ-p54, AJ-p54-KLH, and AJ-DMPVDPDN) produced in Example 1 with respect to human αSyn and aggregated human αSyn in mice was evaluated. Physiological saline or the AJ-human αSyn peptide conjugate (250 μg/mouse) was intramuscularly administered to balb/c mice (females, 6 weeks old, CLEA Japan, Inc.) twice at a 2-week interval using Alum (InvivoGen, 50 μg/mouse) as an adjuvant. Furthermore, KLH-DMPVDPDN (25 μg/mouse) was administered using Alum (InvivoGen, 50 μg/mouse) as an adjuvant. Two weeks after the second administration, serum was recovered to evaluate the antibody titer by ELISA. ELISA was performed by the method described in Example 2.
The antibody-inducing ability of the produced various human αSyn peptide conjugates with respect to human αSyn and aggregated human αSyn in the mice was evaluated by the method described in Example 2 using the antibody titers with respect to human αSyn and aggregated human αSyn of the mouse immune serum. […] In Table 6, the antibody titer of AJ-p242, AJ-p244, AJ-p347, or AJ-p361 is shown with the antibody titer of AJ-p150 as a control being 1 (logarithm). In addition, the antibody titers of AJ-p229, AJ-p237, and AJ-p298 are shown with the antibody titer of AJ-p54 as a control being 1 (logarithm).
The antibody-inducing ability of the AJ-human αSyn peptide conjugates with a modified linker with respect to human αSyn and aggregated human αSyn in the mice was evaluated using the antibody titers with respect to human αSyn and aggregated human αSyn of the mouse immune serum. […] In Table 8, the antibody titers of the AJ-human αSyn peptide conjugates with various modified linkers comprising p54 are shown with the antibody titer of AJ-p54 as a control being 1 (logarithm). In addition, the antibody titers of the AJ-human αSyn peptide conjugates with various modified linkers comprising p150 are shown with the antibody titer of AJ-p150 as a control being 1 (logarithm).

human αSyn = assay: Antibody-inducing ability in mice: ELISA antibody titer of immune serum with respect to human αSyn; assay type: in vivo, mouse; set-up: key to Antibody titer with respect to human αSyn, relative to control: log titer relative to control conjugate (control = 1); details: for Antibody titer with respect to human αSyn, relative to control: mice
Description: as §1
as §2, with “above-mentioned method. […]” for “above-mentioned method.”
The antibody-inducing ability of the produced various human αSyn peptide conjugates with respect to human αSyn and aggregated human αSyn in the mice was evaluated by the method described in Example 2 using the antibody titers with respect to human αSyn and aggregated human αSyn of the mouse immune serum. […] In Table 6, the antibody titer of AJ-p242, AJ-p244, AJ-p347, or AJ-p361 is shown with the antibody titer of AJ-p150 as a control being 1 (logarithm). In addition, the antibody titers of AJ-p229, AJ-p237, and AJ-p298 are shown with the antibody titer of AJ-p54 as a control being 1 (logarithm). […]

[1] = Example 10, modified linker, titer of AJ-p54 or AJ-p150 as control being 1 (logarithm)
[2] = Example 9, N = 4, titer of AJ-p150 or AJ-p54 as control being 1 (logarithm)

ELKLIFLHRLKRLRKRLKRKDDAKKEAYEMPSEE [AJ-DDAKK-p150]
Antibody titer with respect to aggregated human αSyn, relative to control (aggregated human αSyn; [1]): 1.30
Antibody titer with respect to human αSyn, relative to control (human αSyn; [1]): 1.14

ELKLIFLHRLKRLRKRLKRKDDAKKKKDQLGKNE [AJ-DDAKK-p54]
Antibody titer with respect to aggregated human αSyn, relative to control (aggregated human αSyn; [1]): 0.98
Antibody titer with respect to human αSyn, relative to control (human αSyn; [1]): 1.03

ELKLIFLHRLKRLRKRLKRKEAAAKEAYEMPSEE [AJ-EAAAK-p150]
Antibody titer with respect to aggregated human αSyn, relative to control (aggregated human αSyn; [1]): 1.16
Antibody titer with respect to human αSyn, relative to control (human αSyn; [1]): 1.14

ELKLIFLHRLKRLRKRLKRKEAAAKKKDQLGKNE [AJ-EAAAK-p54]
Antibody titer with respect to aggregated human αSyn, relative to control (aggregated human αSyn; [1]): 0.96
Antibody titer with respect to human αSyn, relative to control (human αSyn; [1]): 0.96

ELKLIFLHRLKRLRKRLKRKGEAYEMPSEE [AJ-G-p150]
Antibody titer with respect to aggregated human αSyn, relative to control (aggregated human αSyn; [1]): 0.95
Antibody titer with respect to human αSyn, relative to control (human αSyn; [1]): 0.96

ELKLIFLHRLKRLRKRLKRKGGGGSEAYEMPSEE [AJ-GGGGS-p150]
Antibody titer with respect to aggregated human αSyn, relative to control (aggregated human αSyn; [1]): 1.25
Antibody titer with respect to human αSyn, relative to control (human αSyn; [1]): 1.19

ELKLIFLHRLKRLRKRLKRKGGGGSKKDQLGKNE [AJ-GGGGS-p54]
Antibody titer with respect to aggregated human αSyn, relative to control (aggregated human αSyn; [1]): 1.02
Antibody titer with respect to human αSyn, relative to control (human αSyn; [1]): 1.05

ELKLIFLHRLKRLRKRLKRKGKKDQLGKNE [AJ-G-p54]
Antibody titer with respect to aggregated human αSyn, relative to control (aggregated human αSyn; [1]): 0.96
Antibody titer with respect to human αSyn, relative to control (human αSyn; [1]): 0.89

ELKLIFLHRLKRLRKRLKRKPPDPDPEAYEMPSEE [AJ-PPDPDP-p150]
Antibody titer with respect to aggregated human αSyn, relative to control (aggregated human αSyn; [1]): 1.37
Antibody titer with respect to human αSyn, relative to control (human αSyn; [1]): 1.33

ELKLIFLHRLKRLRKRLKRKPPDPDPKKDQLGKNE [AJ-PPDPDP-p54]
Antibody titer with respect to aggregated human αSyn, relative to control (aggregated human αSyn; [1]): 0.88
Antibody titer with respect to human αSyn, relative to control (human αSyn; [1]): 0.89

ELKLIFLHRLKRLRKRLKRKXAAYEMPSEEG (ELKLIFLHRLKRLRKRLKRK[Ahx]AAYEMPSEEG) [AJ-p242]
Antibody titer with respect to aggregated human αSyn, relative to control (aggregated human αSyn; [2]): 1.12
Antibody titer compared with control conjugate (in words) (human αSyn; Example 9, mice, human αSyn and aggregated human αSyn, control AJ-p150 or AJ-p54): same level of an antibody titer
Antibody titer with respect to human αSyn, relative to control (human αSyn; [2]): 1.06
